# Source: patent US20230139506A1, “HETEROCLITIC CANCER VACCINES” (MEMORIAL SLOAN KETTERING CANCER CENTER, priority 2020, published 2023)
# What was measured:
# H-2Kb = target: T1, H-2Kb (Mus musculus, UniProt P01901); test: MHC-I stabilization assay using TAP-deficient RMA/S cells; type: cell-based, murine
# T1 construct: its ability to stabilize MHC-I in the H-2Kb-expressing TAP-deficient RMA/S cell line; endogenous in cells; host or cells: RMA/S cells (murine, TAP-deficient)
# T1 sequence (P01901 22-369): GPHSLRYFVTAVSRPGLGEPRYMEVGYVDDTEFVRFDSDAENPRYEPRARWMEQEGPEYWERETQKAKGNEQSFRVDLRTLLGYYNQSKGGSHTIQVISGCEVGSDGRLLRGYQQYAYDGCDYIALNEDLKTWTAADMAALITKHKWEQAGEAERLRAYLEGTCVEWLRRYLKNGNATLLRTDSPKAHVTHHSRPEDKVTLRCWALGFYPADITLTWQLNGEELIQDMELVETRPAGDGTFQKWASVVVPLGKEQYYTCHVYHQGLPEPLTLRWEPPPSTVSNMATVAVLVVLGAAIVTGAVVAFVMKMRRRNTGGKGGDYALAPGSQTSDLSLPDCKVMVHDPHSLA
# T1 sequence (P01887 21-119 partner): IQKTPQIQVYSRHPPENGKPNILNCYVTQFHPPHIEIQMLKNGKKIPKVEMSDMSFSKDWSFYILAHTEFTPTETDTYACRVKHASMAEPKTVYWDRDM
# Procedure: (§1) To test peptide binding to murine H-2Kb or human HLA-A*02:01, TAP-deficient RMA/S and T2 cells were used, respectively, as previously reported (59, 60). […] T2 cells (62) were serum-starved in serum-free RPMI media overnight and […] at indicated final concentrations for 16 hours before measuring HLA-A*02:01 levels by flow cytometry (BD; Clone BB7.2). The […] (SEQ ID NO. 287) peptide was acquired as a custom order from Genscript.
# C57BL/6J mice = test: Peptide immunization (Titermax adjuvant) and IFNγ ELISpot of CD8+ T cells from draining lymph nodes; type: in vivo, mouse; details: for CALR9p2-specific CD8+ T cell response: peptide emulsified in Titermax adjuvant, secondary restimulation with CALR9p2
# Procedure: (§2) All peptides were purchased as custom peptide synthesis orders from GenScript at a purity of >98% and resuspend at 10 mg/mL in DMSO (Sigma). For peptide vaccines, peptides were diluted in PBS and emulsified with Titermax® (Titermax USA, Inc) at a 1:1 ratio immediately prior to immunization, such that each dose was composed of 10 μg peptide in a total volume of 25 uL. In control (DMSO) immunization, an equivalent volume of DMSO is substituted for the diluted peptide in the TiterMax® emulsion. For subsequent in vitro assays, draining inguinal and popliteal lymph nodes were collected at indicated time points and CD8+ T cells were isolated using positive magnetic sorting using mouse CD8a (Ly-2) MicroBeads (Miltenyi Biotec). DNA vaccines were performed using a gene gun as previously described (27, 63) according to indicated time points. Briefly, mice received four injections (400 lbs/inch2) of DNA-coated gold particles into the abdominal region of the skin for a total 4 μg of DNA per dose. DNA plasmids encoding the wildtype or 52 base-pair deletion CALRMUT sequences fused with the flag sequence are as previously described (64). For pING-OVA, the full-length chicken ovalbumin sequence was cloned into the pING plasmid (65). CD8+ T cells were collected as before, but only from draining inguinal lymph nodes. To test for antigen-specificity, the mouse IFNγ ELISpot set (BD) was used according to the manufacturer's instructions. Briefly, CD8+ T cells were frozen immediately after purification in FBS containing 10% DMSO, thawed one day prior to restimulation and allowed to recover overnight in 20 U/mL IL-2 (Peprotech) RPMI-1640 medium containing 10% fetal bovine serum (FBS), Na-Pyruvate, L-glutamine and Penicillin/Streptomycin. As a source of antigen-presenting cells (APCs), splenocytes from naïve mice were depleted of T cells using magnetic microbeads for CD8a (Ly2) and CD4 (L3T4) (Miltenyi Biotec), pulsed for one hour with 100 μg/mL peptide at 37° C. followed by a wash. For each well, 105 CD8+ T cells were co-culture with 1×105-3×105 peptide-pulsed APCs and incubated for approximately 18 hours. Spots were counted using the ImmunoSpot analyzer (Cellular Technology Limited).
# peptide-pulsed B16 cells = test: Killing assay of peptide-pulsed B16 cells by CD8+ T cells isolated from peptide-immunized mice; type: cell-based, mouse; details: CD8+ T cells from mice immunized with a single dose
# CD8+ T cells = test: CALR9p2(T5F)-tetramer staining and flow cytometry of CD8+ T cells from immunized mice; type: in vivo, mouse
# RMA/SpER-CALR9p2 tumors = test: Tumor growth experiments with RMA/SpER-CALR9p2 tumors; type: in vivo, mouse
# Procedure: as §2
# RMA/S cells were maintained in RPMI 1640 medium supplemented with 7.5% inactivated FBS, 1×non-essential amino acids and 2 mM L-glutamine. The DNA sequence encoding the CALR9p2 peptide (bold) was cloned into the PresentER-IRES-GFP (38) construct using the following oligo:
# following SfiI digestion and T4 ligation (New England Biolabs). The resulting construct was used to generate retrovirus by co-transfection with pCL-Ampho into ecotropic Pheonix cells (ATCC). Viral supernatants were collected at 48 and 72 hours, pooled and Retro-X Concentrator (Takara Bio USA)-concentrated retrovirus was used to transduce RMA/S cells by spinoculation using polybrene (Sigma). GFP-positive cells were FACS sorted (BD FACSAria III) and cultured in 4 μg/mL puromycin (Gibco) media. A total of 5×10^6 cells were injected subcutaneously in the flank of mice. For anti-PD1 treatment, 250 μg of RMP1-14 was injected intra-peritoneally in PBS at indicated time points.
# HLA-A*02:01 = target: T2, HLA-A*02:01 (Homo sapiens, UniProt P04439, D140Y/D185E/D98H/E176V/E277Q/G131W/G231S/I119V/I121R/I166T/I218V/L300P/L318F/N151K/N90K/P208A/P217A/Q86G/Q94H/R138H/R169H/T345S); test: MHC-I stabilization assay using human TAP-deficient T2 cells; type: cell-based; details: flow cytometry
# T2 construct: endogenous in cells; host or cells: T2 cells (human, TAP-deficient)
# Procedure: as §1
# [1] = tested on: PBMCs from healthy HLA-A*02:01 individuals; test: Human PBMC in vitro restimulation, IFNγ+ CD8+ T cells by intracellular staining; type: cell-based; details: six healthy donors; significant (P<0.05) or trending (P<0.30)
# Procedure: Freshly isolated or thawed cryopreserved healthy donor PBMCs were restimulated with cytokines and peptides as previously described (14). Briefly, on day 0, PBMCs were resuspended in X-VIVO15 media (Lonza) and seeded at 105 per well of a 96 U-bottom plate with 1000 IU/mL GM-CSF (Sanofi), 500 IU/mL IL-4 (R&D Systems) and 50 ng/mL Flt3L (R&D Systems). On day 1, media was refreshed with 0.1 μg/mL LPS (Invivogen), 10 μM R848 (Invivogen), 5 μg/mL IL-10 (R&D Systems) and 1 μg/mL of indicated peptides, and incubated for 24 hours. The CMV, EBV, Flu, Tetanus (CEFT) and the myelin oligodendrocyte glycoprotein (MOG) peptide pools (JPT Technologies) were used as positive and negative controls, respectively. On days 2 and 5, half the media was refreshed with RPMI (Gibco) containing 10% human serum (Gemini Bio-Products), 10 ug/ml gentamycin (Gibco), HEPES (Gibco), GlutaMAX (Gibco) and hIL-2 and hIL-7 to a final concentration of 10 IU/mL and 10 ng/mL, respectively (R&D Systems). On day 8, the media was refreshed without cytokines. On day 10, PBMCs were restimulated with corresponding peptides in the presence of 1 μg/mL of anti-hCD28 and anti-hCD49d (BD Biosciences). As controls, some cells were stimulated with PMA (Sigma-Aldrich, 50 ng/mL) and ionomycin (Sigma-Aldrich, 1 μg/mL). […] Data was acquired using the BD Fortessa and the data was analyzed on FlowJo V10 (TreeStar). […]
# [2] = target: T3, murine H-2Kb on TAP-deficient RMA/S cells (murine, UniProt P01887 21-119; P01901 22-305); test: H-2Kb stabilization assay on RMA/S cells in absence of serum, flow cytometry
# T3 construct: whole, on cells;extracellular; MHC class I molecule; surface level read with antibody clone AF6-88.5 by flow cytometry
# T3 sequence (MHC heavy, looked up): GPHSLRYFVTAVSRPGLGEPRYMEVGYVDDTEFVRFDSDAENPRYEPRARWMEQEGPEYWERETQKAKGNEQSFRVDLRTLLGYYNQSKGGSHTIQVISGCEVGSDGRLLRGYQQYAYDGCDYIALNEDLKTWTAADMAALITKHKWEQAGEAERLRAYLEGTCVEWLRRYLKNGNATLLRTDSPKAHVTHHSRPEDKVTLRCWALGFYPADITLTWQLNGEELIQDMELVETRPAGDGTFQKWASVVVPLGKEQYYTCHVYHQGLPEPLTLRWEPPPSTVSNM
# T3 sequence (b2m, looked up): T1 sequence (P01887 21-119 partner)
# Source text: To test peptide binding to murine H-2Kb or human HLA-A*02:01, TAP-deficient RMA/S and T2 cells were used, respectively, as previously reported (59, 60).
# [3] = target: T3, murine H-2Kb on TAP-deficient RMA/S …; test: H-2Kb stabilization assay on RMA/S cells, flow cytometry
# [4] = initial CALR9p2(T5F) followed by two CALR9p2 boosts
# [5] = two doses of CALR9p2(T5F) and a final CALR9p2 boost
# [6] = prophylactic: three doses prior to tumor implantation, vs adjuvant alone
# [7] = therapeutic: multiple doses after tumors allowed to grow, vs adjuvant alone
molecule,measurement,setting,value
RMMRFKMRM [CALR9p2(T5F)],fold H-2Kb stabilization compared to CALR9p2,H-2Kb; absence of serum,tenfold
same,CD8+ T cell response to CALR9p2(T5F),C57BL/6J mice; [4],very small response to the CALR9p2(T5F) peptide
same,cross-reactive CD8+ T cell response to CALR9p2,C57BL/6J mice; [4],no detectable cross-reactive CD8+ T cell responses to CALR9p2 in vitro
same,CALR9p2-specific CD8+ T cell response,C57BL/6J mice,elicited a CD8+ T cell capable of cross-reacting with CALR9p2 in vitro
same,CD8+ T cell response to CALR9p2(T5F),C57BL/6J mice; [5],intermediate response to CALR9p2(T5F)
same,cross-reactive CD8+ T cell response to CALR9p2,C57BL/6J mice; [5],no detectable cross-reactive CD8+ T cells
same,killing of tumor cells pulsed with the CALR9p2 peptide,peptide-pulsed B16 cells,killing tumor cells pulsed with the CALR9p2 peptide
same,IFNγ restimulation by CALR9p2 of CALR9p2(T5F)-tetramer-specific CD8+ T cells,CD8+ T cells; CD8+ T cells from CALR9p2(T5F)-immunized mice,The only CALR9p2-potentiated CD8+ T cells were those also staining for the CALR9p2(T5F)-tetramer
same,Tim3 and Pd1 levels of CALR9p2-specific vs CALR9p2(T5F)-specific CD8+ T cells,CD8+ T cells; after restimulation,equal levels of Tim3 and Pd1
same,survival,RMA/SpER-CALR9p2 tumors; prophylactic: three doses prior to tumor implantation,differences in survival were not significant
same,tumor growth,RMA/SpER-CALR9p2 tumors; [6],grew significantly slower
same,effect of the vaccine,"RMA/SpER-CALR9p2 tumors; therapeutic, administered with immune checkpoint blockade using a PD-1 antibody",even more prominent
same,survival,RMA/SpER-CALR9p2 tumors; [7],improved survival
same,tumor growth,RMA/SpER-CALR9p2 tumors; [7],tumors grew significantly slower
"RMMRTKMRM [CALR9p2, 9mer CALRMUT peptide starting at position 2, parental native peptide]",binding to HLA-A*02:01 (stabilization),HLA-A*02:01,weak binding signal compared to DMSO control
same,CD8+ T cell responses (IFNγ) to CALR9p2 alone,[1],three of the six healthy donors
same,H-2Kb stabilization,H-2Kb; in the presence of serum,did not elicit detectable H-2Kb stabilization
same,H-2Kb stabilization,H-2Kb; serum omitted,poor but still detectable binding
same,peptide concentration at which H-2Kb was stabilized,"H-2Kb; serum omitted, only the highest concentration",100 µg/mL
same,CALR9p2-specific CD8+ T cell response,C57BL/6J mice,did not elicit any CALR9p2-specific CD8+ T cell response
same,tumor growth,RMA/SpER-CALR9p2 tumors; [6],grew at the same rate
"SIINFEKL [chicken ovalbumin (OVA)-derived peptide, positive control]",H-2Kb stabilization,H-2Kb; in the presence of serum,strong binding
RMMRFKMRM (Custom synthetic peptide) [CALR9p2(T5F) heteroclitic peptide (RMMRFKMRM)],fold H-2Kb stabilization compared to CALR9p2,[2],~10 fold
SIINFEKL (Custom order from Genscript) [chicken ovalbumin (OVA)-derived peptide SIINFEKL],binding result,[3],binds
